Paper PMC12306498, “Microwave-assisted synthesis of tubulin assembly inhibitors as anticancer agents by aryl ring reversal and conjunctive approach” (RSC Medicinal Chemistry, 2025)
Values joined by “and” are separate entries in the source; they are usually repeats but may differ in a detail not shown here. Identical values can stand only once. Like-named read-outs stand apart in the source and are kept apart here.

Legend:
tubulin [1] = assay: Inhibition of [3H]colchicine binding to tubulin; details: for Colch. binding (% ± SD): inhibition of [3H]colchicine binding, tubulin, [3H]colchicine, inhibitor at 1, 5 and 5 μM
Description: The reaction mixtures contained 1.0 μM tubulin, 5.0 μM [^3H]colchicine, and 5.0 or 1.0 μM inhibitor, as indicated, and were incubated for 10 min at 37 °C. Complete details were described previously.[36]

tubulin [2] = assay: Inhibition of tubulin polymerization (tubulin assembly, turbidity at 350 nm); format: biochemical; details: tubulin at 10 μM, read-out: Tubulin IC50 ± SD
Description: The assembly reaction mixtures contained 0.8 M monosodium glutamate (pH 6.6 with HCl in a 2 M stock solution), 10 μM tubulin, 4% (v/v) DMSO, and varying concentrations of drug. Following a 15 min preincubation at 30 °C, samples were chilled on ice, GTP to 0.4 mM was added, and turbidity development was followed at 350 nm in a temperature-controlled recording spectrophotometer for 20 min at 30 °C. The extent of reaction was measured. Full experimental details were previously described.[35]

[3] = system: MCF-7 human breast carcinoma cells; assay: MCF-7 cell growth inhibition; format: cell-based; details: read-out: MCF-7 IC50 ± SD
[4] = Homo sapiens, MCF7, cells grown for 96 h
[5] = Homo sapiens, MCF7, 96 h, cells grown for 96 h

| SMILES | Inhibition of [3H]colchicine binding (tubulin [1]; inhibitor at 1 μM, tubulin 1 μM, [3H]colchicine 5 μM) [%] | Colch. binding (% ± SD) (tubulin [1]) | IC50 (tubulin [2]) [nM] | IC50 [3, 4] [nM] | IC50 [3, 5] [nM] | IC50 ([3]; cells grown for 96 h) [nM] |
| --- | --- | --- | --- | --- | --- | --- |
| COc1ccc(/C=C\c2cc(OC)c(OC)c(OC)c2)cc1O [CA4, combretastatin A-4, reference compound] | 78 |  |  |  |  |  |
| COc1cc(C(=O)c2cn(-c3ccccn3)cc2-c2ccc(C)cc2)cc(OC)c1OC [Compound 3, (1-(Pyridin-2-yl)-4-(4-tolyl)-1H-pyrrol-3-yl)(3,4,5-trimethoxyphenyl)methanone] |  | 59 ± 0.9% | 500 ± 100 | 1500 ± 200 |  |  |
| COc1cc(C(=O)c2cn(-c3ccccn3)cc2-c2ccc(C(F)(F)F)cc2)cc(OC)c1OC [Compound 5, (1-(Pyridin-2-yl)-4-(4-(trifluoromethyl)phenyl)-1H-pyrrol-3-yl)(3,4,5-trimethoxyphenyl)methanone] |  | 3.2 ± 5% | 2000 ± 100 | 652 ± 12.6 |  |  |
| COc1cc(C(=O)c2cn(-c3ccccn3)cc2-c2ccc(Cl)cc2)cc(OC)c1OC [Compound 6, (4-(4-Chlorophenyl)-1-(pyridin-2-yl)-1H-pyrrol-3-yl)(3,4,5-trimethoxyphenyl)methanone] |  | 66 ± 3% | 520 ± 5 | 340 ± 60 |  |  |
| COc1cc(C(=O)c2cn(-c3ccccn3)cc2-c2ccc(N(C)C)cc2)cc(OC)c1OC [Compound 7, (4-(4-(Dimethylamino)phenyl)-1-(pyridin-2-yl)-1H-pyrrol-3-yl)(3,4,5-trimethoxyphenyl)methanone] |  | 72% and 72 ± 0.2% | 430 ± 40 | 120 ± 40 |  |  |
| COc1cc(OC)cc(-c2cn(-c3ccccn3)cc2C(=O)c2cc(OC)c(OC)c(OC)c2)c1 [Compound 8, (4-(3,5-Dimethoxyphenyl)-1-(pyridin-2-yl)-1H-pyrrol-3-yl)(3,4,5-trimethoxyphenyl)methanone] |  | 21 ± 5% | 1600 ± 200 | 2200 ± 400 |  |  |
| COc1cc(C(=O)c2cn(-c3cccnc3)cc2-c2ccc(C)cc2)cc(OC)c1OC [Compound 9, (1-(Pyridin-3-yl)-4-(4-tolyl)-1H-pyrrol-3-yl)(3,4,5-trimethoxyphenyl)methanone] |  | 20 ± 5% | 1900 ± 200 | 670 ± 200 |  |  |
| COc1ccc(-c2cn(-c3cccnc3)cc2C(=O)c2cc(OC)c(OC)c(OC)c2)cc1 [Compound 10, (4-(4-Methoxyphenyl)-1-(pyridin-3-yl)-1H-pyrrol-3-yl)(3,4,5-trimethoxyphenyl)methanone] |  | 29 ± 0.8% | 840 ± 20 | 758 ± 9.3 |  |  |
| COc1cc(C(=O)c2cn(-c3cccnc3)cc2-c2ccc(Cl)cc2)cc(OC)c1OC [Compound 11, (4-(4-Chlorophenyl)-1-(pyridin-3-yl)-1H-pyrrol-3-yl)(3,4,5-trimethoxyphenyl)methanone] |  | 29 ± 4% | 1500 ± 200 | 1500 ± 400 |  |  |
| COc1cc(C(=O)c2cn(-c3cccnc3)cc2-c2ccc(C(F)(F)F)cc2)cc(OC)c1OC [Compound 12, (1-(Pyridin-3-yl)-4-(4-(trifluoromethyl)phenyl)-1H-pyrrol-3-yl)(3,4,5-trimethoxyphenyl)methanone] |  |  | > 20000 | 3900 ± 70 |  |  |
| COc1cc(C(=O)c2cn(-c3cccnc3)cc2-c2ccc(N(C)C)cc2)cc(OC)c1OC [Compound 13, (4-(4-(Dimethylamino)phenyl)-1-(pyridin-3-yl)-1H-pyrrol-3-yl)(3,4,5-trimethoxyphenyl)methanone] |  | 9.6 ± 4% | 3400 ± 300 | 1000 ± 100 |  |  |
| COc1cc(C(=O)c2cn(-c3ncccn3)cc2-c2ccc(C)cc2)cc(OC)c1OC [Compound 14, (1-(Pyrimidin-2-yl)-4-(4-tolyl)-1H-pyrrol-3-yl)(3,4,5-trimethoxyphenyl)methanone] |  | 54 ± 3% | 1300 ± 40 | 170 ± 50 |  |  |
| COc1ccc(-c2cn(-c3ncccn3)cc2C(=O)c2cc(OC)c(OC)c(OC)c2)cc1 [Compound 15, (4-(4-Methoxyphenyl)-1-(pyrimidin-2-yl)-1H-pyrrol-3-yl)(3,4,5-trimethoxyphenyl)methanone] |  | 65 ± 5% | 1100 ± 100 | 95 ± 20 |  |  |
| COc1cc(OC)cc(-c2cn(-c3ncccn3)cc2C(=O)c2cc(OC)c(OC)c(OC)c2)c1 [Compound 16, (4-(3,5-Dimethoxyphenyl)-1-(pyrimidin-2-yl)-1H-pyrrol-3-yl)(3,4,5-trimethoxyphenyl)methanone] |  | 25 ± 5% | 1100 ± 60 | 780 ± 40 |  |  |
| COc1cc(C(=O)c2cn(-c3ncccn3)cc2-c2cc(OC)c(OC)c(OC)c2)cc(OC)c1OC [Compound 17, (1-(Pyrimidin-2-yl)-4-(3,4,5-trimethoxyphenyl)-1H-pyrrol-3-yl)(3,4,5-trimethoxyphenyl)methanone] |  |  | > 20000 | > 5000 |  |  |
| COc1cc(C(=O)c2cn(-c3ncccn3)cc2-c2ccc(F)cc2)cc(OC)c1OC [Compound 18, (4-(4-Fluorophenyl)-1-(pyrimidin-2-yl)-1H-pyrrol-3-yl)(3,4,5-trimethoxyphenyl)methanone] |  | 70 ± 1% | 2400 ± 80 | 150 ± 7 |  |  |
| COc1cc(C(=O)c2cn(-c3ncccn3)cc2-c2ccc(C(F)(F)F)cc2)cc(OC)c1OC [Compound 19, (1-(Pyrimidin-2-yl)-4-(4-(trifluoromethyl)phenyl)-1H-pyrrol-3-yl)(3,4,5-trimethoxyphenyl)methanone] |  | 18 ± 4% | 2800 ± 100 | 530 |  |  |
| COc1cc(C(=O)c2cn(-c3ncccn3)cc2-c2ccc(Cl)cc2)cc(OC)c1OC [Compound 20, (4-(4-Chlorophenyl)-1-(pyrimidin-2-yl)-1H-pyrrol-3-yl)(3,4,5-trimethoxyphenyl)methanone] |  | 69 ± 4% | 760 ± 100 |  | 68 ± 10 |  |
| COc1cc(C(=O)c2cn(-c3ncccn3)cc2-c2ccc([N+](=O)[O-])cc2)cc(OC)c1OC [Compound 21, (4-(4-Nitrophenyl)-1-(pyrimidin-2-yl)-1H-pyrrol-3-yl)(3,4,5-trimethoxyphenyl)methanone] |  | 34 ± 1% | 1300 ± 200 | 450 ± 100 |  |  |
| COc1cc(C(=O)c2cn(-c3ncccn3)cc2-c2ccc(N(C)C)cc2)cc(OC)c1OC [Compound 22, (4-(4-(Dimethylamino)phenyl)-1-(pyrimidin-2-yl)-1H-pyrrol-3-yl)(3,4,5-trimethoxyphenyl)methanone] |  | 80 ± 0.2% | 680 ± 100 | 10 |  |  |
| COc1cc(C(=O)c2cn(-c3ncccn3)cc2/C=C/c2ccccc2)cc(OC)c1OC [Compound 23, (E)-(1-(pyrimidin-2-yl)-4-styryl-1H-pyrrol-3-yl)(3,4,5-trimethoxyphenyl)methanone] |  | 65 ± 5% | 770 ± 30 | 270 ± 10 |  |  |
| COc1cc(C(=O)c2cn(-c3ncccn3)cc2-c2ccc(N3CCCCC3)cc2)cc(OC)c1OC [Compound 24, (4-(4-(Piperidin-1-yl)phenyl)-1-(pyrimidin-2-yl)-1H-pyrrol-3-yl)(3,4,5-trimethoxyphenyl)methanone] |  | 35 ± 2% | 630 ± 40 | 112 ± 7.7 |  |  |
| COc1cc(C(=O)c2cn(-c3ccccn3)c3ccc(Cl)cc23)cc(OC)c1OC [Compound 25, (5-Chloro-1-(pyridin-2-yl)-1H-indol-3-yl)(3,4,5-trimethoxyphenyl)methanone] |  | 36 ± 4% | 1500 ± 300 |  | 42 | 41.7 ± 2.6 |
| COc1cc(C(=O)c2cn(-c3cccnc3)c3ccc(Cl)cc23)cc(OC)c1OC [Compound 26, (5-Chloro-1-(pyridin-3-yl)-1H-indol-3-yl)(3,4,5-trimethoxyphenyl)methanone] |  | 23 ± 4% | 1500 ± 300 |  | 306 ± 13.4 |  |
| COc1cc(C(=O)c2cn(-c3ncccn3)c3ccc(Cl)cc23)cc(OC)c1OC [Compound 27, (5-Chloro-1-(pyrimidin-2-yl)-1H-indol-3-yl)(3,4,5-trimethoxyphenyl)methanone] |  | 34 ± 5% | 1000 ± 90 |  | 77 ± 10 |  |
| COc1cc(C(=O)c2cn(-c3ncccn3)c3ccc(F)cc23)cc(OC)c1OC [Compound 28, (5-Fluoro-1-(pyrimidin-2-yl)-1H-indol-3-yl)(3,4,5-trimethoxyphenyl)methanone] |  | 45 ± 0.8% | 590 ± 100 |  | 73 ± 4 |  |
| COc1cc(C(=O)c2cn(-c3ncccn3)c3ccc(C#N)cc23)cc(OC)c1OC [Compound 29, 1-(Pyrimidin-2-yl)-3-(3,4,5-trimethoxybenzoyl)-1H-indole-5-carbonitrile] |  | 42 ± 5% | 1300 ± 70 |  | 230 ± 7 |  |
| COc1ccc2c(c1)c(C(=O)c1cc(OC)c(OC)c(OC)c1)cn2-c1ncccn1 [Compound 30, (5-Methoxy-1-(pyrimidin-2-yl)-1H-indol-3-yl)(3,4,5-trimethoxyphenyl)methanone] |  | 71% and 71 ± 5% | 380 ± 40 |  | 220 ± 60 |  |
